These results are taken from ChEMBL document CHEMBL1909046, “DrugMatrix in vitro pharmacology data”.

Experiment [1] has as its target T1, Cysteinyl leukotriene receptor 1 (Homo sapiens, UniProt Q9Y271). Further: in other assays of this panel Not Active means under 50% inhibition at 10 µM.
T1 sequence (Q9Y271 whole entry): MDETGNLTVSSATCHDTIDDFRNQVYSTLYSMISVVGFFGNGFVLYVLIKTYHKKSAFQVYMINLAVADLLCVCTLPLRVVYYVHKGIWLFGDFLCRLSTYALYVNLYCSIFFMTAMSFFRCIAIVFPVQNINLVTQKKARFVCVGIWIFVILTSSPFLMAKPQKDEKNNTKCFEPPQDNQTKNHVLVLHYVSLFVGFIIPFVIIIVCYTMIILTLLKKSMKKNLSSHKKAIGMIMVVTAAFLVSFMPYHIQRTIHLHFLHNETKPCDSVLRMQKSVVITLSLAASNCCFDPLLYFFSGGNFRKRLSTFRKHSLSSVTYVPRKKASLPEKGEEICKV
It counts as cell membranes, Membrane. The conditions noted are these: cho-k1.

Experiment [2] deals with Histamine H2 receptor (Homo sapiens, UniProt P25021). It counts as cell membranes, CHO-K1, Membrane.
The target of experiment [3] is Tyrosine-protein kinase Fyn (Homo sapiens, UniProt P06241). The experiment in a line: biochemical. It counts as cell-based, Insect cells. The conditions noted are these: insect cells.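 Further: enzymatic inhibition of Fyn kinase activity measured with Poly(Glu:Tyr) as the phosphorylation substrate; in other assays of this panel Not Active means under 50% inhibition at 10 µM.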
Experiment [4] addresses T2, Endothelin-1 receptor (Homo sapiens, UniProt P25101).
T2 sequence (P25101 whole entry): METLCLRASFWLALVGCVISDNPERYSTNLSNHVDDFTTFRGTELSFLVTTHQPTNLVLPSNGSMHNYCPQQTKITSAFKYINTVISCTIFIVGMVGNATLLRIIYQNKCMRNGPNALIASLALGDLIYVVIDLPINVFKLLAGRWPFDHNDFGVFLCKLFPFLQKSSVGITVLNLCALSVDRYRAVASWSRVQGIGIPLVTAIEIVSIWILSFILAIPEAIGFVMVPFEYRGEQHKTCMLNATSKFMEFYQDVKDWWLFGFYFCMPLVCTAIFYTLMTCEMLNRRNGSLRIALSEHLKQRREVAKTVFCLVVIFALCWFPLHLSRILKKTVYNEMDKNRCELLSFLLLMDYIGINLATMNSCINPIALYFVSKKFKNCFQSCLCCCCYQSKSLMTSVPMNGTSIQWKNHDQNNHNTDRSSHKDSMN
It counts as cell membranes, Membrane. The settings on record: cho-k1.

Experiment [5] in a line: DRUGMATRIX: Imidazoline I2, Central radioligand binding (ligand: [3H] Idazoxan). It counts as cell membranes, Rattus norvegicus, Wistar, Cerebral cortex, Membrane. The conditions noted are these: Not Active = under 50% inhibition at 10 µM.
Experiment [6] deals with T3, Muscarinic acetylcholine receptor M4 (Homo sapiens, UniProt P08173).
T3 sequence (P08173 whole entry): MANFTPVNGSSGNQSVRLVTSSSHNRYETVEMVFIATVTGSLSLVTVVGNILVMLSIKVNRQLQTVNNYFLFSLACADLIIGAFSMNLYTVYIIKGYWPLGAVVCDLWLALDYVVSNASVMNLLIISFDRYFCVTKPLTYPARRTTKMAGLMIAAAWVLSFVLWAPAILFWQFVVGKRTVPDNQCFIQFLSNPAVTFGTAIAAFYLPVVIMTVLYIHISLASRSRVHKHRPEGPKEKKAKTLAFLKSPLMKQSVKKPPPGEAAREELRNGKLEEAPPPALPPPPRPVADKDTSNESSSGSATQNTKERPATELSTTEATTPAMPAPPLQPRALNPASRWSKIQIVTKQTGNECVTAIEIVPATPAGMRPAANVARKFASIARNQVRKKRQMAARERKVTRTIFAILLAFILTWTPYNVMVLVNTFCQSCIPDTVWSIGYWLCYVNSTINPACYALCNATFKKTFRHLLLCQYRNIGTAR
It counts as cell membranes, CHO-K1, Membrane. The conditions noted are these: for Ki: read-out: Ki.

Histamine H2 receptor, sequence (P25021 whole entry): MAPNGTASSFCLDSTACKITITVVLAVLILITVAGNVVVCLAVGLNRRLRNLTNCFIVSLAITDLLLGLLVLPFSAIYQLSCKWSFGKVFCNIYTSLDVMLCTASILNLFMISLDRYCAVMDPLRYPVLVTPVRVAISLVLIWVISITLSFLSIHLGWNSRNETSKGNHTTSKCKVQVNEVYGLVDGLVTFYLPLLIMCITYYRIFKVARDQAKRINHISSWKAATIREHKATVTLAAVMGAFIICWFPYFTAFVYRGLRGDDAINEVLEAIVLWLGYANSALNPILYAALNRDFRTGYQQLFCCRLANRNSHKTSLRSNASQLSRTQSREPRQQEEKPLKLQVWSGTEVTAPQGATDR
Tyrosine-protein kinase Fyn, sequence (P06241 whole entry): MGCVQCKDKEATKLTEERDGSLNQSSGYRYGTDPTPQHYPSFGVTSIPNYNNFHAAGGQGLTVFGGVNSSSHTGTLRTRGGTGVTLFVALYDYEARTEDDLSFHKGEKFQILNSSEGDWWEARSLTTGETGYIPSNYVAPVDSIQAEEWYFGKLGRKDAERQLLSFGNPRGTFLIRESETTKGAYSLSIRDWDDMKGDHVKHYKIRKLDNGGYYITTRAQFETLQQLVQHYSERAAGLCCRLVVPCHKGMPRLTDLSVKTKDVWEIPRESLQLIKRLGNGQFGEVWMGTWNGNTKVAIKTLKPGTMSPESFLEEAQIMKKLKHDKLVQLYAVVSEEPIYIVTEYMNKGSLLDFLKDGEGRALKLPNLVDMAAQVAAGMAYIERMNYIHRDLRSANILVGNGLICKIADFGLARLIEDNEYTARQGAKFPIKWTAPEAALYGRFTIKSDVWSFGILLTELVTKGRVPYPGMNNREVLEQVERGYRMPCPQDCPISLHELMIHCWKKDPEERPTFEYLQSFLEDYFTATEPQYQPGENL

As for `CC(=O)OCC(=O)[C@@]1(O)CC[C@H]2[C@@H]3CCC4=CC(=O)CC[C@]4(C)[C@@]3(F)[C@@H](O)C[C@@]21C` [FLUDROCORTISONE ACETATE], the IC50 result in experiment [1], in experiment [2] (cho-k1), in experiment [3], in experiment [4], in experiment [5] and in experiment [6] (cho-k1) was “Not Active” in each case. The Ki entry in experiment [5] is “Not Active”.

In the case of `CCOC(=O)c1ncn2c1CN(C)C(=O)c1cc(F)ccc1-2` [FLUMAZENIL], the IC50 result in experiment [1], in experiment [2] (cho-k1), in experiment [3], in experiment [4], in experiment [5] and in experiment [6] (cho-k1) was “Not Active” each time. Also, the inhibition constant Ki result in experiment [5] is “Not Active”.

For `CC(=O)OCC(=O)[C@@]12OC(C)(C)O[C@@H]1C[C@H]1[C@@H]3C[C@H](F)C4=CC(=O)C=C[C@]4(C)[C@@]3(F)[C@@H](O)C[C@@]12C` [FLUOCINONIDE], the IC50 result in experiment [1], in experiment [2] (cho-k1), in experiment [3], in experiment [4], in experiment [5] and in experiment [6] (cho-k1) was “Not Active” each time. The Ki entry in experiment [5] is “Not Active”.

For the compound `O=C(O)P(=O)(O)O` [FOSCARNET], the IC50 entry in experiment [1], in experiment [2] (cho-k1), in experiment [3], in experiment [4], in experiment [5] and in experiment [6] (cho-k1) was “Not Active” in each case. In experiment [5], the Ki result is listed as “Not Active”.

Consider `Cc1ccc(C)c(OCCCC(C)(C)C(=O)O)c1` [GEMFIBROZIL], for which the IC50 entry in experiment [1], in experiment [2] (cho-k1), in experiment [3], in experiment [4], in experiment [5] and in experiment [6] (cho-k1) was “Not Active” in each case. The Ki entry in experiment [5] was “Not Active”.

Consider `O=c1c(-c2ccc(O)cc2)coc2cc(O)cc(O)c12` [GENISTEIN], for which the IC50 result in experiment [1], in experiment [2] (cho-k1), in experiment [3], in experiment [4], in experiment [5] and in experiment [6] (cho-k1) was “Not Active” in each case. Besides, the Ki result in experiment [5] is listed as “Not Active”.

In the case of `CCC1=C(C)CN(C(=O)NCCc2ccc(S(=O)(=O)NC(=O)N[C@H]3CC[C@H](C)CC3)cc2)C1=O` [GLIMEPIRIDE], the IC50 entry in experiment [1], in experiment [2] (cho-k1), in experiment [3], in experiment [4], in experiment [5] and in experiment [6] (cho-k1) was “Not Active” throughout. Moreover, the Ki entry in experiment [5] is reported as “Not Active”.

In the case of `Nc1cc(-c2ccncc2)c[nH]c1=O` [INAMRINONE], the IC50 entry in experiment [1], in experiment [2] (cho-k1), in experiment [3], in experiment [4], in experiment [5] and in experiment [6] (cho-k1) was “Not Active” each time. Further, the Ki result in experiment [5] is “Not Active”.

Take `CCCCC1=NC2(CCCC2)C(=O)N1Cc1ccc(-c2ccccc2-c2nnn[nH]2)cc1` [IRBESARTAN]: the IC50 entry in experiment [1], in experiment [2] (cho-k1), in experiment [3], in experiment [4], in experiment [5] and in experiment [6] (cho-k1) was “Not Active” in each case. In addition, the Ki entry in experiment [5] is listed as “Not Active”.

For `CN1CCC(=C2c3ccccc3CC(=O)c3sccc32)CC1` [KETOTIFEN], the IC50 entry in experiment [1] is “Not Active”; in experiment [2] (read-out: IC50), 4130 nM; in experiment [3], “Not Active”; in experiment [4], “Not Active”; in experiment [5], “Not Active”; in experiment [6] (read-out: IC50), 1010 nM. The Ki in experiment [2] (read-out: Ki) was 4060 nM; in experiment [5], “Not Active”; in experiment [6], 141 nM.

For `N[C@@H](Cn1ccc(=O)c(O)c1)C(=O)O` [L-MIMOSINE], the IC50 result in experiment [1], in experiment [2] (cho-k1), in experiment [3], in experiment [4], in experiment [5] and in experiment [6] (cho-k1) was “Not Active” each time. In addition, the Ki entry in experiment [5] is given as “Not Active”.

For the compound `C[N+](C)(C)C[C@H](O)CC(=O)[O-]` [LEVOCARNITINE], the IC50 entry in experiment [1], in experiment [2] (cho-k1), in experiment [3], in experiment [4], in experiment [5] and in experiment [6] (cho-k1) was “Not Active” throughout. Moreover, the Ki entry in experiment [5] is on record as “Not Active”.

As for `C[C@H]1COc2c(N3CCN(C)CC3)c(F)cc3c(=O)c(C(=O)O)cn1c23.C[C@H]1COc2c(N3CCN(C)CC3)c(F)cc3c(=O)c(C(=O)O)cn1c23.O` [LEVOFLOXACIN], the half-inhibitory concentration (IC50) result in experiment [1], in experiment [2] (cho-k1), in experiment [3], in experiment [4], in experiment [5] and in experiment [6] (cho-k1) was “Not Active” in each case. Besides, the Ki result in experiment [5] is reported as “Not Active”.

With `CCn1cc(C(=O)O)c(=O)c2cc(F)c(N3CCNC(C)C3)c(F)c21` (stereo not given) [LOMEFLOXACIN], the IC50 entry in experiment [1], in experiment [2] (cho-k1), in experiment [3], in experiment [4], in experiment [5] and in experiment [6] (cho-k1) was “Not Active” each time. Further, in experiment [5], the Ki result is “Not Active”.

As to `CN1CCCC(CN2c3ccccc3Sc3ccccc32)C1` (stereo not given) [MEPAZINE], the IC50 result in experiment [1] was “Not Active”; in experiment [2] (cho-k1), “Not Active”; in experiment [3], “Not Active”; in experiment [4] it was “Not Active”; in experiment [5], “Not Active”; in experiment [6] (read-out: IC50), 137 nM. The Ki result was “Not Active” in experiment [5] and 19 nM in experiment [6].

As to `Cc1cccc(C)c1NC(=O)C1CCCCN1C` (stereo not given) [MEPIVACAINE], the IC50 result in experiment [1], in experiment [2] (cho-k1), in experiment [3], in experiment [4], in experiment [5] and in experiment [6] (cho-k1) was “Not Active” each time. Besides, the Ki entry in experiment [5] is listed as “Not Active”.

Turning to `CN(C)C(=N)NC(=N)N` [METFORMIN], the IC50 result in experiment [1], in experiment [2] (cho-k1), in experiment [3], in experiment [4], in experiment [5] and in experiment [6] (cho-k1) was “Not Active” in each case. Moreover, in experiment [5], the Ki result was “Not Active”.

As for `CC(C)(C)NCC(O)COc1cccc2c1CC(O)C(O)C2` (stereo not given) [NADOLOL], the IC50 entry in experiment [1], in experiment [2] (cho-k1), in experiment [3], in experiment [4], in experiment [5] and in experiment [6] (cho-k1) was “Not Active” in each case. In addition, the Ki result in experiment [5] is “Not Active”.

Consider `C[C@]12CC[C@H]3[C@@H](CCC4=CC(=O)CC[C@@H]43)[C@@H]1CC[C@@H]2O` [NANDROLONE], for which the IC50 entry in experiment [1], in experiment [2] (cho-k1), in experiment [3], in experiment [4], in experiment [5] and in experiment [6] (cho-k1) was “Not Active” throughout. Moreover, the Ki entry in experiment [5] is listed as “Not Active”.

Take `C[C@@H]1C/C=C/C=C/C=C/C=C/[C@H](O[C@@H]2O[C@H](C)[C@@H](O)[C@H](N)[C@@H]2O)C[C@@H]2O[C@](O)(C[C@@H](O)C[C@H]3O[C@@H]3/C=C/C(=O)O1)C[C@H](O)[C@H]2C(=O)O` [NATAMYCIN]: the IC50 result in experiment [1], in experiment [2] (cho-k1), in experiment [3], in experiment [4], in experiment [5] and in experiment [6] (cho-k1) was “Not Active” each time. Besides, the Ki result in experiment [5] is “Not Active”.

Consider `CN(C)C(=O)Oc1cccc([N+](C)(C)C)c1.[Br-]` [NEOSTIGMINE BROMIDE], for which the IC50 entry in experiment [1], in experiment [2] (cho-k1), in experiment [3], in experiment [4], in experiment [5] and in experiment [6] (cho-k1) was “Not Active” throughout. In addition, the Ki entry in experiment [5] was “Not Active”.

The term IC50 denotes the concentration that inhibits the measured activity by half. For orientation: Ki means a measure of affinity in units of concentration, obtained from inhibition or displacement.
